Data published in patent US10894775B2, “Piperidine derivatives as liver X receptor beta agonists, compositions, and their use” (Merck Sharp & Dohme Corp., priority 2016, dated 2021).
Where two headings read alike, the source gives them in different places.

Key:
[1] = molecular target: T1, glutathione-S-transferase (GST) tagged LXRalpha LBD (ligand binding domain) (Homo sapiens, UniProt Q13133); test: LanthaScreen TR-FRET Liver X Receptor Coactivator Assay, LXR alpha; assay type: biochemical; conditions: for LXR alpha IP (nM) / EC50: potency (Inflection Point) of compound-induced co-activator recruitment, TR-FRET; for Emax: read-out: LXR alpha actiivty at max dose (%)
T1 construct: purchased Invitrogen pv4655
T1 sequence (Q13133 209-447 limits assumed): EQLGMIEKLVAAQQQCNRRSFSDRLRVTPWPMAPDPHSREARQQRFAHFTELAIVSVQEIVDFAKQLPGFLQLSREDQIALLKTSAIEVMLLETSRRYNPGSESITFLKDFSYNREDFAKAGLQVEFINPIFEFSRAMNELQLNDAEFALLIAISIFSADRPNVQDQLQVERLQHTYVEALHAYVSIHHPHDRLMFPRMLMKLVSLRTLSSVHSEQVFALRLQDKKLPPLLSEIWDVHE
Procedure: (§1) While running the LanthaScreen™ TR-FRET Liver X Receptor Coactivator Assay, LXR alpha-LBD or LXR beta-LBD was added to ligand test compounds followed by addition of a mixture of a fluorescein-labelled coactivator peptide and terbium-conjugated anti-GST antibody. After an incubation period at room temperature, TR-FRET (time-resolved fluorescence resonance energy transfer) was measured using a filter-based instrument capable of TR-FRET, e.g. PerkinElmer Envision.

[2] = molecular target: T2, glutathione-S-transferase (GST) tagged LXRbeta LBD (ligand binding domain) (Homo sapiens, UniProt P55055); test: LanthaScreen TR-FRET Liver X Receptor Coactivator Assay, LXR beta; assay type: biochemical; conditions: for EC50: potency (Inflection Point) of compound-induced co-activator recruitment, TR-FRET; for Emax: read-out: LXR beta actiivty at max dose (%)
T2 construct: purchased Invitrogen pv4658.pps
T2 sequence (P55055 222-460 limits assumed): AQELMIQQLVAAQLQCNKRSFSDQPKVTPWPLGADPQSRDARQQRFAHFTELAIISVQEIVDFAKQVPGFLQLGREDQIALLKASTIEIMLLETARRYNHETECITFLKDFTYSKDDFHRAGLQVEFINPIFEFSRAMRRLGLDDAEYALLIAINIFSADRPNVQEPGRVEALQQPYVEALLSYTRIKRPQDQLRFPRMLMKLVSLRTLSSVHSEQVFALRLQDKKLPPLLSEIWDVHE
Procedure: as §1

[3] = efficacy (Emax) in relation to reference dual agonist T0901317

Row | SMILES | LXR alpha actiivty at max dose (%) [1, 3] [%] | LXR alpha IP (nM) [1] | LXR beta actiivty at max dose (%) [2, 3] [%] | EC50 ([2]; read-out: LXR beta IP) [nM] | Emax [1, 3] [%] | Emax [2, 3] [%] | EC50 ([1]; read-out: LXR alpha IP) [nM] | Emax [1] [%] | EC50 ([2]; LXR beta IP (nM)) [nM] | Emax [2] [%] | EC50 ([1]; LXR alpha IP (nM)) [nM]
1 | CC(CCCC1CCN(C(=O)[C@](O)(c2ccccc2)C(F)(F)F)CC1)Nc1ccc(C(=O)N(C)C)c(Cl)c1 (single isomer, unassigned) [Example 4-4, 2-chloro-N,N-dimethyl-4-((R or S)-5-(1-((R or S)-3,3,3-trifluoro-2-hydroxy-2-phenylpropanoyl)piperidin-4-yl)pentan-2-ylamino)benzamide] | 7 | No IP | 59 | 325 |  |  |  |  |  |  | 
2 | CNC(=O)c1ccc(NCCCCC2CCN(C(=O)C(O)(c3cccc(OC)c3)C(F)(F)F)CC2)cc1F (single isomer, unassigned) [Example 1-6, (R or S)-2-fluoro-N-methyl-4-(4-(1-(3,3,3-trifluoro-2-hydroxy-2-(3-methoxyphenyl)propanoyl)piperidin-4-yl)butylamino)benzamide] |  |  |  | 102 | 16 | 63 | 3300 |  |  |  | 
3 | CN(C)C(=O)c1ccc([S+]([O-])C2CCC3(CC2)CCN(C(=O)C(O)(c2cc(Cl)cc(Cl)c2)C(F)(F)F)CC3)cc1Cl (single isomer, unassigned) [Example 20-1, 2-chloro-4-(3-((R or S)-2-(3,5-dichlorophenyl)-3,3,3-trifluoro-2-hydroxypropanoyl)-3-azaspiro[5.5]undecan-9-ylsulfinyl)-N,N-dimethylbenzamide] |  | No IP |  |  |  |  |  | 0 | 938 | 50 | 
4 | CNC(=O)c1ccc(NCCCCC2CCN(C(=O)C(O)(c3cc(Cl)cc(Cl)c3)C(F)(F)F)CC2)cc1Cl (single isomer, unassigned) [Example 1-11, (R or S)-2-chloro-4-(4-(1-(2-(3,5-dichlorophenyl)-3,3,3-trifluoro-2-hydroxypropanoyl)piperidin-4-yl)butylamino)-N-methylbenzamide] |  | No IP |  | 3 | 0 | 29 |  |  |  |  | 
5 | CN(C)C(=O)c1ccc(CCCC2CCN(C(=O)C(O)(c3ccccc3)C(F)(F)F)CC2)cc1Cl (single isomer, unassigned) [Example 15-1, (R or S)-2-chloro-N,N-dimethyl-4-(3-(1-(3,3,3-trifluoro-2-hydroxy-2-phenylpropanoyl)piperidin-4-yl)propyl)benzamide] |  |  |  |  |  |  |  | 19 | 46 | 41 | 1310
6 | CN(C)C(=O)c1ccc(NCCC2CC23CCN(C(=O)C2(c4ccccc4)CCCC2)CC3)cc1Cl (single isomer, unassigned) [Example 8-1, (S or R)-2-chloro-N,N-dimethyl-4-(2-(6-(1-phenylcyclopentanecarbonyl)-6-azaspiro[2.5]octan-1-yl)ethylamino)benzamide] |  | No IP |  |  | 0 |  |  |  | 7 | 21 | 
7 | CNC(=O)c1ccc(NCCCCC2CCN(C(=O)C(O)(c3ccccc3)C(F)(F)F)CC2)cc1Cl (single isomer, unassigned) [Example 1-3, (R or S)-2-chloro-N-methyl-4-(4-(1-(3,3,3-trifluoro-2-hydroxy-2-phenylpropanoyl)piperidin-4-yl)butylamino)benzamide] |  |  |  | 9 | 38 | 75 | 481 |  |  |  | 
8 | CN(C)C(=O)c1ccc(NCCCCC2CCN(C(=O)OCc3ccccc3)CC2)cc1Cl [Example 1-14, benzyl 4-(4-(3-chloro-4-(dimethylcarbamoyl)phenylamino)butyl)piperidine-1-carboxylate] |  |  |  | 106 | 14 | 41 | 1970 |  |  |  | 
9 | COc1cccc([C@@](O)(C(=O)N2CCC(CC3CC(Nc4ccc(C(=O)N(C)C)c(Cl)c4)C3)CC2)C(F)(F)F)c1 (single isomer, unassigned) [Example 11-1, 2-chloro-N,N-dimethyl-4-((1R,3s)-3-((1-((R or S)-3,3,3-trifluoro-2-hydroxy-2-(3-methoxyphenyl)propanoyl)piperidin-4-yl)methyl)cyclobutylamino)benzamide] |  | No IP |  | 8 |  |  |  | 12 |  | 85 | 
10 | CN(C)C(=O)c1ccc(NCCCC2CCN(S(=O)(=O)c3c(Cl)cccc3Cl)CC2)cc1Cl [Example 1-12, 2-chloro-4-(3-(1-(2,6-dichlorophenylsulfonyl)piperidin-4-yl)propylamino)-N,N-dimethylbenzamide] |  |  |  | 27 | 46 | 82 | 855 |  |  |  | 
11 | CN(C)C(=O)c1ccc(NCCC2CCN(C(=O)OCc3ccccc3)CC2)cc1Cl [Example 1-13, benzyl 4-(2-(3-chloro-4-(dimethylcarbamoyl)phenylamino)ethyl)piperidine-1-carboxylate] |  | No IP |  | 104 | 12 | 21 |  |  |  |  | 

Second part, led by results:

Row | LXR alpha actiivty at max dose (%) [1, 3] [%] | LXR alpha IP (nM) [1] | LXR beta actiivty at max dose (%) [2, 3] [%] | EC50 ([2]; read-out: LXR beta IP) [nM] | Emax [1, 3] [%] | Emax [2, 3] [%] | EC50 ([1]; read-out: LXR alpha IP) [nM] | SMILES | Emax [1] [%] | EC50 ([2]; LXR beta IP (nM)) [nM] | Emax [2] [%] | EC50 ([1]; LXR alpha IP (nM)) [nM]
12 |  | No IP |  | 12 | 0 | 51 |  | COc1cccc([C@@](O)(C(=O)N2CCC3(CC2)C[C@H]3CCCc2ccc(C(=O)N(C)C)c(Cl)c2)C(F)(F)F)c1 (single isomer, unassigned) [Example 17-1, 2-chloro-N,N-dimethyl-4-(3-((R or S)-6-((R or S)-3,3,3-trifluoro-2-hydroxy-2-(3-methoxyphenyl)propanoyl)-6-azaspiro[2.5]octan-1-yl)propyl)benzamide] |  |  |  | 
13 |  | No IP |  | 136 | 0 | 95 |  | CCOc1cccc(C(O)(C(=O)N2CCC3(CCC(Sc4ccc(C(=O)N(C)C)c(Cl)c4)CC3)CC2)C(F)(F)F)c1 (single isomer, unassigned) [Example 19-3, 2-chloro-4-(3-((S or R)-2-(3-ethoxyphenyl)-3,3,3-trifluoro-2-hydroxypropanoyl)-3-azaspiro[5.5]undecan-9-ylthio)-N,N-dimethylbenzamide] |  |  |  | 
14 |  |  |  | 4 | 35 | 50 | 421 | CN(C)C(=O)c1ccc(NC[C@H]2C[C@H]2C2CCN(C(=O)[C@](O)(c3ccccc3)C(F)(F)F)CC2)cc1Cl (single isomer, unassigned) [Example 8-3, 2-chloro-N,N-dimethyl-4-(((1S,2S or 1R,2R)-2-(1-((R or S)-3,3,3-trifluoro-2-hydroxy-2-phenylpropanoyl)piperidin-4-yl)cyclopropyl)methylamino)benzamide] |  |  |  | 
15 |  |  |  | 6 | 27 | 96 | 381 | CNC(=O)c1ccc(CCCCCC2CCN(C(=O)C(O)(c3cccc(OC)c3)C(F)(F)F)CC2)cc1Cl (single isomer, unassigned) [Example 15-6, (R or S)-2-chloro-N-methyl-4-(5-(1-(3,3,3-trifluoro-2-hydroxy-2-(3-methoxyphenyl)propanoyl)piperidin-4-yl)pentyl)benzamide] |  |  |  | 
16 |  |  |  | 8 | 11 | 56 | 472 | CN(C)C(=O)c1ccc(NCCC[C@H]2CC23CCN(C(=O)[C@](O)(c2ccccc2)C(F)(F)F)CC3)cc1Cl (single isomer, unassigned) [Example 6-2, 2-chloro-N,N-dimethyl-4-(3-((S or R)-6-((R or S)-3,3,3-trifluoro-2-hydroxy-2-phenylpropanoyl)-6-azaspiro[2.5]octan-1-yl)propylamino)benzamide] |  |  |  | 
17 |  |  |  | 32 | 39 | 103 | 463 | CN(C)C(=O)c1ccc(CCCCC2CCN(C(=O)C(C)(C)c3ccccc3)CC2)cc1Cl [Example 15-4, 2-chloro-N,N-dimethyl-4-(4-(1-(2-methyl-2-phenylpropanoyl)piperidin-4-yl)butyl)benzamide] |  |  |  | 
18 |  | No IP |  | 19 | 8 | 43 |  | COc1cccc([C@@](O)(C(=O)N2CCC3(CC2)C[C@H]3CCCc2ccc(C(=O)NC3CC3)c(Cl)c2)C(F)(F)F)c1 (single isomer, unassigned) [Example 17-3, 2-chloro-N-cyclopropyl-4-(3-((R or S)-6-((R or S)-3,3,3-trifluoro-2-hydroxy-2-(3-methoxyphenyl)propanoyl)-6-azaspiro[2.5]octan-1-yl)propyl)benzamide] |  |  |  | 
